Source: PMC6430500, “3-Fluoro-4-hydroxyprolines: Synthesis, Conformational Analysis, and Stereoselective Recognition by the VHL E3 Ubiquitin Ligase for Targeted Protein Degradation” (Journal of the American Chemical Society, 2018)

Assays:
Brd2BD1 = molecular target: T1, Brd2BD1 (Homo sapiens, UniProt P25440); assay: ITC of PROTACs, binary titration with Brd2BD1; format: binding; conditions: PROTAC in cell, Brd2BD1 in syringe
T1 construct: Brd2BD1 (71–194),; made in house; host or cells: E. coli BL21(DE3)
From the text: (§1) structure (C2 R, C3 S, C4 R) assumed on the basis of unchanging stereogenic centres in the synthesis.
(§2) Final R(F) = 0.033, wR(F 2) = 0.085 for 275 parameters and 3901 reflections with I > 2σ(I) (corresponding R-values based on all 4067 reflections = 0.035 and 0.086, respectively), CCDC […]
(§3) Protein expression and purification.
(§4) Wild-type versions of human proteins VHL (UniProt accession number: P40337), ElonginC […]
(§5) expression. For expression of VBC, N-terminally His6-tagged VHL (54–213), ElonginC (17–112) and ElonginB (1–104) were co- expressed in Escherichia coli BL21(DE3) at 24 °C for 16 h using 0.3 mM isopropyl β-D -1-thiogalactopyranoside (IPTG). E. coli cells were lysed using a pressure cell homogenizer (Stansted Fluid Power) and lysate clarified by centrifugation. His6-tagged VCB was purified on a HisTrap FF affinity column (GE Healthcare) by elution with an imidazole gradient. The His6tag was removed using TEV protease and the untagged complex dialyzed into low -concentration imidazole buffer. VCB was then flowed through the HisTrap FF column a second time, allowing impurities to bind, as the complex eluted without binding. VCB was then additionally purified by anion exchange and size-exclusion chromatography using ResourceQ and Superdex-75 columns (GE Healthcare), respectively. The final purified complex was stored in 20 mM Bis–Tris, pH 7, 150 mM sodium chloride and 1 mM dithiothreitol (DTT). Brd2BD1 (71–194), and Brd4BD2 (333–460) were expressed with an N-terminal His6 tag in E. coli BL21(DE3) at 18 °C for 20 h using 0.2 mM IPTG.
(§6) His6-tagged BDs were purified on nickel Sepharose 6 fast flow beads (GE Healthcare) by elution with increasing concentrations of imidazole. For crystallography the His6-tagged BD was cleaved with TEV protease and dialyzed into low-concentration imidazole buffer. The BD was then flowed over the nickel beads a second time to remove impurities and protease. BDs were then additionally purified by size-exclusion chromatography using a Superdex-75 column. The BDs were purified by size-exclusion chromatography using a Superdex-75 column. The final purified proteins were stored in 20 mM 4-(2-hydroxyethyl)-1-piperazineethanesulfonic acid (HEPES), pH 7.5, 150 mM sodium chloride and 1 mM DTT. All chromatography purification steps were performed using Äkta FPLC purification systems (GE Healthcare) or glass econo-columns (Bio-Rad) at room temperature.
(§7) Isothermal titration calorimetry (ITC) of peptides and ligands
(§8) Titrations were performed on an ITC200 micro-calorimeter (GE Healthcare). The peptides were dissolved in buffer (20 mM Bis–Tris propane, 100 mM NaCl, 1 mM tris(2-carboxyethyl)phosphine […]
(§9) (TCEP), pH 7.4) at 100 µM. The compounds were titrated against 10 µM VBC complex, equilibrated in the same buffer. The titrations consisted of 20 injections of 2 µL of peptide solution at a rate of 0.5 µL/s at 120 s time intervals. An initial injection of ligand (0.4 µL) was made and discarded during data analysis. All experiments were performed at 25°C while stirring at 650 rpm.
(§10) Ligands 14a- b were diluted from DMSO stock solution to 300 µM in buffer (20 mM Bis-Tris propane, 150 mM NaCl, 1 mM TCEP, pH 7.4). The compounds were titrated against 30 µM VBC complex, equilibrated in the same buffer. The final concentration of DMSO in each experiment was […]
(§11) The data were fitted to a single-binding-site model using the MicroCal PEAQ-ITC analysis software provided by the manufacturer to obtain the stoichiometry n, the dissociation constant K d, and the enthalpy of binding ΔH . The reported values are the mean ± s.e.m. from independent measurements.
(§12) Isothermal titration calorimetry (ITC)of PROTACs
(§13) The titrations were all performed as reverse mode (protein in syringe, ligand in cell) and consisted of 19 injections of 2 µl protein solution (20 mM Bis–Tris propane, 100 mM NaCl, 1 mM tris(2-carboxyethyl)phosphine (TCEP), pH 7.4) at a rate of 0.5 µl/s at 120 s time intervals. An initial injection (0.4 µl) was made and discarded during data analysis. […]

VBC and Brd2BD1 = molecular target: T2, VBC and Brd2BD1 (Homo sapiens, UniProt P25440+P40337); assay: ITC ternary complex formation, VBC titrated into PROTAC:Brd2BD1; format: binding; conditions: for α (cooperativity): Kd binary,VBC/Kd ternary; for α (cooperativity) / ΔΔG: Brd2BD1; for Kd / ΔG / ΔH / –TΔS: PROTAC:Brd2BD1 in cell, VBC in syringe; for ΔΔG: ternary vs binary
T2 construct: VHL (54–213), ElonginC (17–112) and; Brd2BD1 (71–194),; His6 (N, cleaved yes); made in house; host or cells: E. coli BL21(DE3)
From the text: as §1, §2, §3, §4, §5, §6, §7, §8, §9, §10, §11, §12, §13

A549 cells = assay: A549 colony-formation assay; format: cell-based; conditions: 7 days, crystal violet
Description: A549 Colony-Formation Assay
A549 cells were seeded in clear, Nunc™ Edge 2.0 96 -w ell plates (Thermo Scientific) at 1000 cells per well and incubated at 37°C in DMEM. After 24 h cells were treated with test compounds from 10 µM to 100 nM , with a final DM SO of 0.1%. The cells were left to grow until DM SO -treated wells reached ~100% confluence (~8 days), at which point they were washed with PBS, fixed with 100% MeOH (30 min 4°C), stained with 0.1% crystal violet (30 min at r.t.) and left to dry overnight. Once dried plates were imaged on an Epson Perfection V800 scanner, at a resolution of 1200 DPI and in 48 -bit colour.
For dose-response curves, crystal-violet dye was extracted by the addition of 200 µl 1% SDS to each well, and incubation for 3 h at r.t. The absorbance at 595nm of each well was measured on a Pherastar FS (BMG), normalised for each compound and plotted against compound concentration.
(1 picture or pasted object on this page, not shown here)

T2 sequence (P40337 54-213): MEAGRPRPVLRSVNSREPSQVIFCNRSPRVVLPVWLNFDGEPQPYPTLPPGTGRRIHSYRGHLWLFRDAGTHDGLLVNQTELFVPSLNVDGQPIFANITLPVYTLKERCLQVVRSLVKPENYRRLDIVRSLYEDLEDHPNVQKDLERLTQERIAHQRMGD
T2 sequence (Q15369 17-112 partner limits assumed): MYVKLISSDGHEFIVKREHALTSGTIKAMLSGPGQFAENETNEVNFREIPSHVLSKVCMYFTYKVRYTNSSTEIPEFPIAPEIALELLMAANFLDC
T2 sequence (Q15370 1-104 partner limits assumed): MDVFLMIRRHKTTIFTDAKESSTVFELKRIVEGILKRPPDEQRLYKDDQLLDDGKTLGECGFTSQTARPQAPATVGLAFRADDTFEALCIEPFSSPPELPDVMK
T2 sequence (P25440 71-194): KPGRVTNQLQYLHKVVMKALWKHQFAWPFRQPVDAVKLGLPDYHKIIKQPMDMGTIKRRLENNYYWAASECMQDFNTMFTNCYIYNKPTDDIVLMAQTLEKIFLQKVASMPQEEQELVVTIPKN
T1 sequence (P25440 71-194): as above

| Kd (Brd2BD1) | ΔG (Brd2BD1) | ΔH (Brd2BD1) | –TΔS (Brd2BD1) | α (cooperativity) (VBC and Brd2BD1) | Kd (VBC and Brd2BD1) | ΔG (VBC and Brd2BD1) | ΔH (VBC and Brd2BD1) | –TΔS (VBC and Brd2BD1) | ΔΔG (VBC and Brd2BD1) | Compound | effect on cell growth, colony formation (in words) (A549 cells) |
| --- | --- | --- | --- | --- | --- | --- | --- | --- | --- | --- | --- |
| 0.097 ± 0.0006 µM | -9.57 ± 0.01 kcal/mol | -13.7 ± 0.3 kcal/mol | 4.2 ± 0.3 kcal/mol | 3.9 | 0.064 ± 0.003 µM | -9.85 ± 0.05 kcal/mol | -9.17 kcal/mol | -0.6 ± 0.6 kcal/mol | -0.85 kcal/mol | Cc1ncsc1-c1ccc(CNC(=O)[C@@H]2[C@@H](F)[C@@H](O)CN2C(=O)[C@@H](NC(=O)COCCOCCOCCNC(=O)C[C@@H]2N=C(c3ccc(Cl)cc3)c3c(sc(C)c3C)-n3c(C)nnc32)C(C)(C)C)cc1 [15a] | profound concentration-dependent cytotoxicity |
| 0.111 ± 0.006 µM | -9.49 ± 0.03 kcal/mol | -14.1 ± 0.6 kcal/mol | 4.9 ± 0.6 kcal/mol | 1.2 | 0.5 ± 0.096 µM | -8.6 ± 0.1 kcal/mol | -5.1 ± 0.2 kcal/mol | -3.6 ± 0.3 kcal/mol | -0.1 ± 0.1 kcal/mol | Cc1ncsc1-c1ccc(CNC(=O)[C@@H]2[C@H](F)[C@@H](O)CN2C(=O)[C@@H](NC(=O)COCCOCCOCCNC(=O)C[C@@H]2N=C(c3ccc(Cl)cc3)c3c(sc(C)c3C)-n3c(C)nnc32)C(C)(C)C)cc1 [15b] | affected cell growth only modestly |
